From article PMC8119466, “A screen of FDA-approved drugs identifies inhibitors of protein tyrosine phosphatase 4A3 (PTP4A3 or PRL-3)” (Scientific Reports, 2021)

Tests used:
MKP5 = target: T1, MKP5 (Homo sapiens, UniProt Q9Y6W6); test: PhosphataseProfiler (Eurofins) selectivity panel; assay type: biochemical; conditions: MKP5, 25µM
T1 construct: purchased Eurofins PP260

HCT116 cells [1] = test: Annexin V staining, HCT116; assay type: cell-based, human; conditions: HCT-116; 100 µM Salirasib or 25 µM Candesartan; 24 and 48 hr
Experimental: (§1) HEK293T, HCT116, and SW480 cells were plated in 6 well dishes at 4 × 10^5 cell seeding density and treated with DMSO, Candesartan and Salirasib at the indicated concentrations. Cells were collected at 24 h and 48 h time points and the AnnexinV staining was performed according to the instructions from the manual (Thermo Fisher, Cat # 00-0055-56). Flow cytometry with AnnexinV-FITC conjugated antibody (Thermo Fisher, Cat # A13199) was used to determine the population of cells incorporating Annexin V and PI was used for the DNA content.

HCT116 cells [2] = test: Scratch (migration) assay, HCT116; assay type: cell-based, human; conditions: 24 h, 100 µM Salirasib or 25 µM Candesartan
Experimental: pENTR-PRL-3 (previously described[51]) was cloned into pLKO-CMV-puro using LR clonase (Thermofisher, 11,791,019) according to manufacturer’s directions. pLKO-CMV empty vector (EV) and pLKO-CMV:PRL-3 were transfected into HEK293T using Lipofectamine 3000 (ThermoFisher, L3000015) according to manufacturer’s protocol. Transfected cells were selected with 1 µg/mL puromycin in complete media to establish the cell line, then were maintained under 0.5 µg/mL puromycin in complete media. For PRL-3 knockdown, pLKO.1-scrambled shRNA and pLKO.1-PRL-3 shRNA[51] plasmids were transfected into HCT116 cells using Lipofectamine 3000 (Thermo Fisher, Cat # L3000015) according to the manufacturer’s directions. Cells were selected for 48 h in 1 µg/mL puromycin before use in assays.
(§2) Cells were seeded into duplicate wells of a 48 well plates at a density of 2 × 10^5 cells per well for HEK293T or 4 × 10^5 for HCT116 and SW480. Cells were recovered overnight and were scratched using a p20 pipette tip the following day. Compounds were added at the concentrations indicated. Images were obtained immediately after the scratch and after a 24 h incubation with the drug on an Evos FL inverted microscope (ThermoFisher). The area within the scratch was calculated using ImageJ. The area migrated was measured as the difference in wound area at 0 h and 24 h and the percent change in migration was calculated by dividing the difference in wound area of treatment by the difference in wound area of the control.

PTPN22 = target: T2, PTPN22 (Homo sapiens, UniProt Q9Y2R2); test: PhosphataseProfiler (Eurofins) selectivity panel; assay type: biochemical; conditions: PTPN22, 25µM
T2 construct: purchased Eurofins PP260

TCPTP = target: T3, TCPTP (Homo sapiens, UniProt P17706); test: PhosphataseProfiler (Eurofins) selectivity panel; assay type: biochemical; conditions: 25µM
T3 construct: purchased Eurofins PP260

HEK293T cells [3] = test: Annexin V staining, HEK293T; assay type: cell-based, human; conditions: 100 µM Salirasib or 25 µM Candesartan, 24 and 48 hr
Experimental: as §1

HEK293T cells [4] = test: MTT viability assay; assay type: cell-based, human; conditions: 16 h
Experimental: Cells were seeded into duplicate wells of a 96 well plate at a density of 2 × 10^4 cells per well and allowed to recover for 24 h. Cells were then treated with drug or DMSO at the indicated concentrations for 16 h. Following drug treatment, 10 μL of 5 mg/ml MTT (Sigma, M5655) was added to each well and cells were incubated for 4 h. Finally, media were removed, and the dye was solubilized in 100 μL of 0.1 M HCl in isopropanol. Absorbance was measured at 570 nm and 690 nm with final absorbance measurements as 570–690 nm.

PTPRM = target: T4, PTPRM (Homo sapiens, UniProt P28827); test: PhosphataseProfiler (Eurofins) selectivity panel; assay type: biochemical; conditions: 25µM
T4 construct: purchased Eurofins PP260

Yoph = target: T5, Yoph (Yersinia enterocolitica, UniProt P15273); test: PhosphataseProfiler (Eurofins) selectivity panel; assay type: biochemical; conditions: 25µM
T5 construct: purchased Eurofins PP260
Experimental: In 384 well plates, 2.5 μM recombinant PRL-1, PRL-2, or PRL-3 was combined with DiFUMP (Life Technologies, Cat # E12020) at the KM of each protein in reaction buffer (20 mM Tris–Cl, pH 7.5, 150 mM NaCl, 10 mM DTT) as previously reported. Briefly, protein was diluted in reaction buffer and allowed to incubate at 4 °C for 20 min to allow for full reduction of the active site. DiFMUP, drug, and protein were added, and plates were incubated for 20 min at room temperature. Fluorescence intensities were measured on a Cytation 5 plate reader (Biotek) at an EX:360 nm and EM:460 nm. Data were normalized to vehicle control and IC50 values were calculated on GraphPad Prism version 8. Inhibition selectivity for PRLs over a panel of other phosphatases was determined using PhosphataseProfiler (Eurofins, Cat # PP260).

SW480 cells [5] = test: Scratch (migration) assay, SW480; assay type: cell-based, human; conditions: 24 h, 100 µM Salirasib or 25 µM Candesartan, vs DMSO
Experimental: as §2

SW480 cells [6] = test: Annexin V staining, SW480; assay type: cell-based, human; conditions: 100 µM Salirasib or 25 µM Candesartan, 24 and 48 hr
Experimental: as §1

phospho-ERK = test: Western blot of phospho-ERK in HCT116 cells; assay type: cell-based, human; conditions: HCT116, 24 hr; 100 µM Salirasib, 25 µM Candesartan
Experimental: Cells were lysed using Qproteome lysis buffer (Qiagen, Cat # 37901), then spun at 14,000 rpm for 10 min at 4 °C. Protein concentration in the supernatant was quantified using BCA assay (Thermo Scientific, Cat # 23227). 30 μg of protein was loaded into each lane of a TGX-stain-free pre-cast 4–20% SDS gel (Biorad, Cat # 4568094), total protein was quantified upon stain-free gel imaging, and protein was transferred onto PVDF membrane using the Trans-Blot Turbo Transfer System (BioRad, Cat # 1704150). Membranes were blocked with 5% milk in 1% TBST for 1 h, and a 1:1000 dilution of Anti-PRL-3 antibody (R&D Biosystems, Cat # MAB3219), 1:5000 phospho-ERK (Cell Signaling, Cat # 19101) or 1:5000 total ERK (Cell Signaling, Cat # 137F5) was added overnight. Following three washes in TBST, secondary HRP-conjugated antibody (GE, Cat # NA9340V) were added at a 1:5000 dilution for 1 h and membranes imaged using Clarity Western ECL Substrate. (BioRad, Cat # 1705061).

PTP1B = target: T6, PTP1B (Homo sapiens, UniProt P18031); test: PhosphataseProfiler (Eurofins) selectivity panel; assay type: biochemical; conditions: 25µM
T6 construct: purchased Eurofins PP260

ACP1 (LMPTP-A) = target: T7, ACP1 (LMPTP-A) (Homo sapiens, UniProt P24666); test: PhosphataseProfiler (Eurofins) selectivity panel; assay type: biochemical; conditions: 25µM
T7 construct: purchased Eurofins PP260
T7 sequence (P24666 whole entry): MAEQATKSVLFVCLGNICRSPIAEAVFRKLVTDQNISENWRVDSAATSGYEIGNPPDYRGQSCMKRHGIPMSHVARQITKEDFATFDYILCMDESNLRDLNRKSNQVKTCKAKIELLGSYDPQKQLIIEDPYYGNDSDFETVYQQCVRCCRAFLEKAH
Experimental: Briefly, protein was diluted in reaction buffer and allowed to incubate at 4 °C for 20 min to allow for full reduction of the active site. DiFMUP, drug, and protein were added, and plates were incubated for 20 min at room temperature. Fluorescence intensities were measured on a Cytation 5 plate reader (Biotek) at an EX:360 nm and EM:460 nm. […] Inhibition selectivity for PRLs over a panel of other phosphatases was determined using PhosphataseProfiler (Eurofins, Cat # PP260).

T2 sequence (Q9Y2R2 whole entry): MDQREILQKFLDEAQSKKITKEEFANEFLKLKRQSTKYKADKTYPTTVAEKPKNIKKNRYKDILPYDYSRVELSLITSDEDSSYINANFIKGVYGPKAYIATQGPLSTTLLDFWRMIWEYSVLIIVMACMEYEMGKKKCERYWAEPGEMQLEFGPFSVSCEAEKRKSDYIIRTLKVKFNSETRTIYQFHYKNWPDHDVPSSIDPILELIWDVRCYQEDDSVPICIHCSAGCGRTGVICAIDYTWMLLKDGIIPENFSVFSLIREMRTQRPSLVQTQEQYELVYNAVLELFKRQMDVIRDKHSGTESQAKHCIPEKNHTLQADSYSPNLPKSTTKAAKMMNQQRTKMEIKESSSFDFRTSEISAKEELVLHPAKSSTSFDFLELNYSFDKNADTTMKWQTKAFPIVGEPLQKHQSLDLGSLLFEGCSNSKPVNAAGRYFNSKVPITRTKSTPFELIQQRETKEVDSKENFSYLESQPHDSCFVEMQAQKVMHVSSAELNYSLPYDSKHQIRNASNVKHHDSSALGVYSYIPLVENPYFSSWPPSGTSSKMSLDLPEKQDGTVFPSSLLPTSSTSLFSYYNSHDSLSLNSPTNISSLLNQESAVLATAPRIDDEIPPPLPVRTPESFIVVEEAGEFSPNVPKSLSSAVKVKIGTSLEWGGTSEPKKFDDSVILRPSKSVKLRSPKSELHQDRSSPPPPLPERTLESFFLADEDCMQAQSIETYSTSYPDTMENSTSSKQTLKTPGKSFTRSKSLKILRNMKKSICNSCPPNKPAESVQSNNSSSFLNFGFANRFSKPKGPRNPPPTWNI
T3 sequence (P17706 whole entry): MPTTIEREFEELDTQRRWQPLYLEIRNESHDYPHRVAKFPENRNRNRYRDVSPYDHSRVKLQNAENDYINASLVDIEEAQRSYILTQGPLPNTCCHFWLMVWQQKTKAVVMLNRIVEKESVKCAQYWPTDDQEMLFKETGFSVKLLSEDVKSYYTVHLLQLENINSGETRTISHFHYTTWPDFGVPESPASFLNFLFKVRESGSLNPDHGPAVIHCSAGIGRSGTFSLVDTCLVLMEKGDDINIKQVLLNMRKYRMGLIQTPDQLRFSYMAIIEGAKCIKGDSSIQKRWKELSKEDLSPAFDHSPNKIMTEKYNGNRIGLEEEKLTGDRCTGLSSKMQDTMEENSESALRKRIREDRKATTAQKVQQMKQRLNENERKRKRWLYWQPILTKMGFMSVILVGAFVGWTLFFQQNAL
T4 sequence (P28827 21-1452): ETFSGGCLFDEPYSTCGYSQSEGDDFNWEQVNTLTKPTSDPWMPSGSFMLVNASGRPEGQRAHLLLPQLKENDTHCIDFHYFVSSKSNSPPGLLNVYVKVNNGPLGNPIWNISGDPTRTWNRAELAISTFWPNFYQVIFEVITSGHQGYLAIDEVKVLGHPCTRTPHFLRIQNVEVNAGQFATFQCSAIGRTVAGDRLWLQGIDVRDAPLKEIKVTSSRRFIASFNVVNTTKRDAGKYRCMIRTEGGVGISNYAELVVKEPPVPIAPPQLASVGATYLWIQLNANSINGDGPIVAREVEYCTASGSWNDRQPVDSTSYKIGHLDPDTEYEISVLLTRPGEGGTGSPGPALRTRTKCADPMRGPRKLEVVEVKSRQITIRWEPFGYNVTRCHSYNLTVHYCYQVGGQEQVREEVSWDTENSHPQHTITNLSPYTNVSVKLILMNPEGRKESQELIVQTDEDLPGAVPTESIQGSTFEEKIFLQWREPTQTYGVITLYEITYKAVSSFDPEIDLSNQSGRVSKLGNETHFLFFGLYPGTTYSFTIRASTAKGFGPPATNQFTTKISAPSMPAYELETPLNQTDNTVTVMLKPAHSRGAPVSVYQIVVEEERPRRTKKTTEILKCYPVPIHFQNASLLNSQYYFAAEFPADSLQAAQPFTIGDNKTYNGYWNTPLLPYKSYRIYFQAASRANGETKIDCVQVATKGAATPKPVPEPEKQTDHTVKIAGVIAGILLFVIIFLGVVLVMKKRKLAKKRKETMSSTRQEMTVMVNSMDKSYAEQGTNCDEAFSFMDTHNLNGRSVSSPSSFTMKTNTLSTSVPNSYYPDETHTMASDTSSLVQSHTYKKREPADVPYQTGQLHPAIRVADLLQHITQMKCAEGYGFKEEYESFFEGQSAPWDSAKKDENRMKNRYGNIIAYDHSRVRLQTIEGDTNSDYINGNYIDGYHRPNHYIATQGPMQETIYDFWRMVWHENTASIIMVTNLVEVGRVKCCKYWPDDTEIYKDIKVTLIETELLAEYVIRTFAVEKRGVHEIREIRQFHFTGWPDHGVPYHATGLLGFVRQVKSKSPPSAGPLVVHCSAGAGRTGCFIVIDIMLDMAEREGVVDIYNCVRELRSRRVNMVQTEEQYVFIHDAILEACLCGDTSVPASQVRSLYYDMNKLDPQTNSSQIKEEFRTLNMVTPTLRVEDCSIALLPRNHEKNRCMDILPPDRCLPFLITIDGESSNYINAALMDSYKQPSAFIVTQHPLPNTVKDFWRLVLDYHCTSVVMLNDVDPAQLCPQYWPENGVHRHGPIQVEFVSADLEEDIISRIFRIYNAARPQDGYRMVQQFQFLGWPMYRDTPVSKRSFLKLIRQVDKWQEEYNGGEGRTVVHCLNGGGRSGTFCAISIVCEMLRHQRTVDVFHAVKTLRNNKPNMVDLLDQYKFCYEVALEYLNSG
T1 sequence (Q9Y6W6 whole entry): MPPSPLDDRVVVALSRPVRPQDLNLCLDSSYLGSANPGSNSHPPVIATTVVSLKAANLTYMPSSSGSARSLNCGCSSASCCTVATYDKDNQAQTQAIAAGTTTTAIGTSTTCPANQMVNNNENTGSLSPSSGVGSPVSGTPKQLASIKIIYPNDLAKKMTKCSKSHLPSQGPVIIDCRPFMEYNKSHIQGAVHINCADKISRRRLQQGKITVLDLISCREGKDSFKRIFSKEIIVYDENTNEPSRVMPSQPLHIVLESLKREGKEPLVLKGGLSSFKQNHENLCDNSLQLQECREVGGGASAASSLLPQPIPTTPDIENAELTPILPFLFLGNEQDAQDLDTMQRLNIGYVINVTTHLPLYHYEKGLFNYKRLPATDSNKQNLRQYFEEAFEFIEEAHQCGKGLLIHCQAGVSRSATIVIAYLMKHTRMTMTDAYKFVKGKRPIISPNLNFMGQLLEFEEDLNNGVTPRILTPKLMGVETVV
T6 sequence (P18031 whole entry): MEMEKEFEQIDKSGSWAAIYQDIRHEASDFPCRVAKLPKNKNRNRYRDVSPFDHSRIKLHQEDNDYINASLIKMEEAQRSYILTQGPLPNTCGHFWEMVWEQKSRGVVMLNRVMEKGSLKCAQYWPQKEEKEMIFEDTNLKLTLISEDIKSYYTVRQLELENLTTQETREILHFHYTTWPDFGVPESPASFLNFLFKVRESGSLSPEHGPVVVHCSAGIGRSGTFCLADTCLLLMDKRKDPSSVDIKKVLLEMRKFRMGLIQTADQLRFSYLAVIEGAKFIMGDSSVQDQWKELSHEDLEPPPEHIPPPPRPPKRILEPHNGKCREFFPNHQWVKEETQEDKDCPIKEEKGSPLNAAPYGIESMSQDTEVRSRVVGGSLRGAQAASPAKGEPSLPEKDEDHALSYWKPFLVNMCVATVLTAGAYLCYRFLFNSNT
T5 sequence (P15273 whole entry, species assumed): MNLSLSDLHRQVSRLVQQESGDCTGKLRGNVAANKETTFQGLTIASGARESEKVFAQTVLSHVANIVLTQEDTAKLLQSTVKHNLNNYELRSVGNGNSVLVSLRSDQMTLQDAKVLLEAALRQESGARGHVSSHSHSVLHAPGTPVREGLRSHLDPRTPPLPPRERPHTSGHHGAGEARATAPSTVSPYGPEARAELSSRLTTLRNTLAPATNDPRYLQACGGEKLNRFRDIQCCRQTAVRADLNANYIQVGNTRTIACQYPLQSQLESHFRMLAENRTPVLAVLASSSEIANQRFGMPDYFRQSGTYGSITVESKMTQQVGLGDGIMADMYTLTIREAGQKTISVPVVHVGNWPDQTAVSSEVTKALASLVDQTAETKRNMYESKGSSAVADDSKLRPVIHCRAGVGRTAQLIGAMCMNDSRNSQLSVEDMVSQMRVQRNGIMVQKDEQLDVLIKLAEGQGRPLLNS

Row | SMILES | Percent Phosphatase Activity (compared to DMSO) (MKP5) | apoptosis (AnnexinV plus propidium iodide) (HCT116 cells [1]) | migration of HCT116 cells with PRL-3 knock-down (PRL-3 shRNA) (HCT116 cells [2]) | inhibition of migration of HCT116 cells (HCT116 cells [2]; vs DMSO) | Percent Phosphatase Activity (compared to DMSO) (PTPN22) | Percent Phosphatase Activity (compared to DMSO) (TCPTP) | apoptosis (AnnexinV plus propidium iodide) (HEK293T cells [3]) | viability (MTT) (HEK293T cells [4]; 100 µM) | viability (MTT) (HEK293T cells [4]; up to 50 µM) | Percent Phosphatase Activity (compared to DMSO) (PTPRM) | Percent Phosphatase Activity (compared to DMSO) (Yoph) | inhibition of migration of SW480 cells (SW480 cells [5]) | apoptosis (AnnexinV plus propidium iodide) (SW480 cells [6]) | phospho-ERK levels (phospho-ERK) | Percent Phosphatase Activity (compared to DMSO) (PTP1B) | Percent Phosphatase Activity (compared to DMSO) (ACP1 (LMPTP-A)) | inhibition at 100 µM (HCT116 cells [2]; Homo sapiens, HCT-116, vs DMSO) | viability (MTT) (HEK293T cells [4]; drug doses 1 to 100 µM, normalized to 1% DMSO) | inhibition at 100 µM (SW480 cells [5]; Homo sapiens, SW480)
1 | CCOc1nc2cccc(C(=O)O)c2n1Cc1ccc(-c2ccccc2-c2nnn[nH]2)cc1 [Candesartan] | 99% | did not significantly impact | no additional impact on migration | > 30% | 136% | 128% | did not significantly impact | viability dropped significantly | insignificant effect on viability | 107% | 112% | > 30% | did not significantly impact | decreased phospho-ERK levels | 109% | 97% |  |  | 
2 | CC(C)=CCC/C(C)=C/CC/C(C)=C/CSc1ccccc1C(=O)O [Salirasib] | 106% |  | significantly reduced migration |  | 129% | 118% |  |  |  | 111% |  |  |  | decreased phospho-ERK levels | 114% | 96% | > 30% | no effect on the viability | > 30%
